Assay results taken from PMC11148045, “Structural basis for recognition of 26RFa by the pyroglutamylated RFamide peptide receptor” (Cell Discovery, 2024).
No end group written: not given here.

Assays:
Assay type in all cases: cell-based
[1] = molecular target: T1, QRFPR (WT) (Homo sapiens, UniProt Q96P65); experiment: 26RFa-induced calcium mobilization, wild-type receptor; details: HEK293, Fluo-4 AM, ex 485/em 525 nm, mean ± S.E.M., at least three independent experiments
T1 construct: expressed in transfected cells; host or cells: HEK293, transient transfection by electroporation
Method: (§1) The gene encoding the WT QRFPR, PrPRR, KISS1R, NPFF1R, or NPFF2R was subcloned into the pcDNA3.0 vector with the addition of an N-terminal HA tag. All of the mutations used for functional studies were generated by QuickChange PCR and verified by DNA sequencing.
(§2) HEK293 cells were obtained from ATCC (Manassas, VA, USA) and cultured in DMEM supplemented with 10% (v/v) FBS, 100 mg/L penicillin, and 100 mg/L streptomycin in 5% CO2 at 37 °C. For transient transfection, ~2.5 × 10^6 cells were mixed with 2 µg plasmids in 200 µL transfection buffer, and electroporation was carried out with a Scientz-2C electroporation apparatus (Scientz Biotech, Ningbo, China). The experiments were carried out 24 h after transfection.
For QRFPR, PrRPR, and KISS1R, HEK293 cells transfected with WT receptor or its mutants were seeded at a density of 4 × 10^4 per well into 96-well culture plates and incubated for 24 h at 37 °C in 5% CO2. […] After washing, cells were added with 50 μL HBSS and incubated at room temperature for 10 min, then 25 μL agonist buffer was dispensed into the well using a FlexStation III microplate reader (Molecular Devices), and intracellular calcium change was recorded at an excitation wavelength of 485 nm and an emission wavelength of 525 nm. EC50 and Emax values for each curve were calculated by Prism 8.0 software (GraphPad Software).

[2] = molecular target: T2, QRFPR mutants (Homo sapiens, UniProt Q96P65); experiment: 26RFa-induced calcium mobilization, receptor mutants
T2 construct: expressed in transfected cells; host or cells: HEK293, transient transfection by electroporation
Method: as §1, §2
(§3) For QRFPR, PrRPR, and KISS1R, HEK293 cells transfected with WT receptor or its mutants were seeded at a density of 4 × 10^4 per well into 96-well culture plates and incubated for 24 h at 37 °C in 5% CO2. For NPFF1R and NPFF2R, plasmids were transfected into HEK293 cells stably expressing Gα16. On the next day, cells were incubated with 2 μmol/L Fluo-4 AM in HBSS supplemented with 5.6 mmol/L D-glucose and 250 μmol/L sulfinpyrazone at 37 °C for 45 min. After washing, cells were added with 50 μL HBSS and incubated at room temperature for 10 min, then 25 μL agonist buffer was dispensed into the well using a FlexStation III microplate reader (Molecular Devices), and intracellular calcium change was recorded at an excitation wavelength of 485 nm and an emission wavelength of 525 nm. EC50 and Emax values for each curve were calculated by Prism 8.0 software (GraphPad Software).

[3] = molecular target: T3, QRFPR mutants (Homo sapiens, UniProt Q96P65, D307A); experiment: as above; details: HEK293, QRFPR D307^7.27A; HEK293, Fluo-4; mean ± S.E.M., n ≥ 3
T3 construct: expressed in transfected cells; host or cells: HEK293, transient transfection by electroporation
Method: as §1, §2, §3

[4] = molecular target: T4, QRFPR mutants (Homo sapiens, UniProt Q96P65, E297A); experiment: as above
T4 construct: expressed in transfected cells; host or cells: HEK293, transient transfection by electroporation
Method: as §1, §2, §3

[5] = molecular target: T5, QRFPR mutants (Homo sapiens, UniProt Q96P65, F289L); experiment: as above
T5 construct: expressed in transfected cells; host or cells: HEK293, transient transfection by electroporation
Method: as §1, §2, §3

[6] = molecular target: T6, QRFPR mutants (Homo sapiens, UniProt Q96P65, F322A); experiment: as above; details: HEK293, QRFPR F322^7.43A; HEK293, Fluo-4; mean ± S.E.M., n ≥ 3
T6 construct: expressed in transfected cells; host or cells: HEK293, transient transfection by electroporation
Method: as §1, §2, §3

[7] = molecular target: T7, QRFPR mutants (Homo sapiens, UniProt Q96P65, H293A); experiment: as above; details: HEK293, QRFPR H293^6.55A; HEK293, Fluo-4; mean ± S.E.M., n ≥ 3
T7 construct: expressed in transfected cells; host or cells: HEK293, transient transfection by electroporation
Method: as §1, §2, §3

[8] = molecular target: T8, QRFPR mutants (Homo sapiens, UniProt Q96P65, I117A); experiment: as above; details: HEK293, QRFPR I117^3.24A; HEK293, Fluo-4; mean ± S.E.M., n ≥ 3
T8 construct: expressed in transfected cells; host or cells: HEK293, transient transfection by electroporation
Method: as §1, §2, §3

[9] = molecular target: T9, QRFPR mutants (Homo sapiens, UniProt Q96P65, L193A); experiment: as above
T9 construct: expressed in transfected cells; host or cells: HEK293, transient transfection by electroporation
Method: as §1, §2, §3

[10] = molecular target: T10, QRFPR mutants (Homo sapiens, UniProt Q96P65, P122A); experiment: as above; details: HEK293, QRFPR P122^3.29A; HEK293, Fluo-4; mean ± S.E.M., n ≥ 3
T10 construct: expressed in transfected cells; host or cells: HEK293, transient transfection by electroporation
Method: as §1, §2, §3

[11] = molecular target: T11, QRFPR mutants (Homo sapiens, UniProt Q96P65, Q184A); experiment: as above; details: HEK293, QRFPR Q184^4.64A; HEK293, Fluo-4; mean ± S.E.M., n ≥ 3
T11 construct: expressed in transfected cells; host or cells: HEK293, transient transfection by electroporation
Method: as §1, §2, §3

[12] = molecular target: T12, QRFPR mutants (Homo sapiens, UniProt Q96P65, Q318A); experiment: as above; details: HEK293, QRFPR Q318^7.39A; HEK293, Fluo-4; mean ± S.E.M., n ≥ 3
T12 construct: expressed in transfected cells; host or cells: HEK293, transient transfection by electroporation
Method: as §1, §2, §3

[13] = molecular target: T13, QRFPR mutants (Homo sapiens, UniProt Q96P65, S108A); experiment: as above; details: HEK293, QRFPR S108^2.65A; HEK293, Fluo-4; mean ± S.E.M., n ≥ 3
T13 construct: expressed in transfected cells; host or cells: HEK293, transient transfection by electroporation
Method: as §1, §2, §3

[14] = molecular target: T14, QRFPR mutants (Homo sapiens, UniProt Q96P65, W111A); experiment: as above; details: HEK293, QRFPR W111^23.50A; HEK293, Fluo-4; mean ± S.E.M., n ≥ 3
T14 construct: expressed in transfected cells; host or cells: HEK293, transient transfection by electroporation
Method: as §1, §2, §3

[15] = molecular target: T15, QRFPR mutants (Homo sapiens, UniProt Q96P65, W205A); experiment: as above; details: HEK293, QRFPR W205^ECL2A; HEK293, Fluo-4; mean ± S.E.M., n ≥ 3
T15 construct: expressed in transfected cells; host or cells: HEK293, transient transfection by electroporation
Method: as §1, §2, §3

[16] = molecular target: T16, QRFPR mutants (Homo sapiens, UniProt Q96P65, Y190A); experiment: as above; details: HEK293, QRFPR Y190^ECL2A; HEK293, Fluo-4; mean ± S.E.M., n ≥ 3
T16 construct: expressed in transfected cells; host or cells: HEK293, transient transfection by electroporation
Method: as §1, §2, §3

T4 sequence (Q96P65 whole entry E297A): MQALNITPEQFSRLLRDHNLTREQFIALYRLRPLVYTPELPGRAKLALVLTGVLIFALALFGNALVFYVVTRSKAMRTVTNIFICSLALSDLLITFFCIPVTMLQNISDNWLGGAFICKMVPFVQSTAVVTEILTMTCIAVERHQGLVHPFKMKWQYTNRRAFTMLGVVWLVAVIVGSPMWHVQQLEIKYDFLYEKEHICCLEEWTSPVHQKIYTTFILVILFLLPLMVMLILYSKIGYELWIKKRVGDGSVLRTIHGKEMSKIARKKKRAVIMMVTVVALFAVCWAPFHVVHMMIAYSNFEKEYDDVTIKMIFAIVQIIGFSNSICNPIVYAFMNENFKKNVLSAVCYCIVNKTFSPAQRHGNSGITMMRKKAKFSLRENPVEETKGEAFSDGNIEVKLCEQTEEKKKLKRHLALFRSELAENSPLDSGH
T5 sequence (Q96P65 whole entry F289L): as the sequence (Q96P65 whole entry E297A) above, with F289L, A297E counted along it
T2 sequence (Q96P65 39-431, change not shown): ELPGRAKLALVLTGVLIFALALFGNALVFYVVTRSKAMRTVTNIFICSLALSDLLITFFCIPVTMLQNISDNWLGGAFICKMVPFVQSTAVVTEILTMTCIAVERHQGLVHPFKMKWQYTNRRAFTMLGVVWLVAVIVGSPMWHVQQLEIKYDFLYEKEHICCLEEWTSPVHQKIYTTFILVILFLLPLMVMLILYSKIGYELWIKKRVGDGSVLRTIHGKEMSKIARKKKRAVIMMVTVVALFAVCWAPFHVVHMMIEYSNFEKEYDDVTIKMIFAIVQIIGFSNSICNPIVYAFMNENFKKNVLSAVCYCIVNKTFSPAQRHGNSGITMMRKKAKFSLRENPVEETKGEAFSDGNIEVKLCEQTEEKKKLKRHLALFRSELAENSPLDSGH
T9 sequence (Q96P65 whole entry L193A): as the sequence (Q96P65 whole entry E297A) above, with L193A, A297E counted along it
T3 sequence (Q96P65 whole entry D307A): as the sequence (Q96P65 whole entry E297A) above, with A297E, D307A counted along it
T15 sequence (Q96P65 whole entry W205A): as the sequence (Q96P65 whole entry E297A) above, with W205A, A297E counted along it
T7 sequence (Q96P65 whole entry H293A): as the sequence (Q96P65 whole entry E297A) above, with H293A, A297E counted along it
T1 sequence (Q96P65 whole entry): as the sequence (Q96P65 whole entry E297A) above, with A297E counted along it
T14 sequence (Q96P65 whole entry W111A): as the sequence (Q96P65 whole entry E297A) above, with W111A, A297E counted along it
T10 sequence (Q96P65 whole entry P122A): as the sequence (Q96P65 whole entry E297A) above, with P122A, A297E counted along it
T11 sequence (Q96P65 whole entry Q184A): as the sequence (Q96P65 whole entry E297A) above, with Q184A, A297E counted along it
T6 sequence (Q96P65 whole entry F322A): as the sequence (Q96P65 whole entry E297A) above, with A297E, F322A counted along it
T12 sequence (Q96P65 whole entry Q318A): as the sequence (Q96P65 whole entry E297A) above, with A297E, Q318A counted along it
T13 sequence (Q96P65 whole entry S108A): as the sequence (Q96P65 whole entry E297A) above, with S108A, A297E counted along it
T16 sequence (Q96P65 whole entry Y190A): as the sequence (Q96P65 whole entry E297A) above, with Y190A, A297E counted along it
T8 sequence (Q96P65 whole entry I117A): as the sequence (Q96P65 whole entry E297A) above, with I117A, A297E counted along it

With ASGPLGTLAEELSSYSRRKGGFSFRF-NH2 [26RFa] the Emax [1] was 100 ± 1%, the Emax ([2]; HEK293, QRFPR Δ1-38, HEK293, Fluo-4, mean ± S.E.M., n ≥ 3) was 14.7 ± 1.5% and the “peptide-induced QRFPR activity” value ([2]; QRFPR Δ1–38 (entire N-terminus truncated)) was “abolished the peptide-induced QRFPR activity”. The Emax [3] was 106 ± 0.64%, the Emax ([4]; HEK293, QRFPR E297^6.59A, HEK293, Fluo-4, mean ± S.E.M., n ≥ 3) was 107 ± 0.8% and the “effect of mutation on 26RFa activity” value ([4]; QRFPR 6.59 to alanine (printed D^6.59)) was “almost did not affect 26RFa activity”. The Emax ([5]; HEK293, QRFPR F289^6.51L, HEK293, Fluo-4, mean ± S.E.M., n ≥ 3) was 112 ± 5.1%, the “effect of mutation on 26RFa activity” value ([5]; QRFPR F289^6.51 to leucine) was “did not impact the 26RFa activity” and the Emax [6] was 11.1 ± 0.26%. The Emax [7] was 95.5 ± 1.6%, the Emax [8] was 75.1 ± 3.1% and the Emax ([9]; HEK293, QRFPR L193^ECL2A, HEK293, Fluo-4, mean ± S.E.M., n ≥ 3) was 66.8 ± 0.54%. The “effect of mutation on peptide activity” value ([9]; QRFPR L193A) was “remarkable decline in peptide activity”, the Emax [10] was 96.7 ± 1.4% and the Emax [11] was 71.4 ± 2.2%. The Emax [12] was 1.69 ± 0.66%, the Emax [13] was 51.7 ± 0.73% and the Emax [14] was 73.4 ± 1.7%. The Emax [15] was 2.58 ± 1.2% and the Emax [16] was 23.6 ± 0.22%.
